Test results published in PubChem BioAssay (NCI).
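GI50: concentration for 50% inhibition of growth. Definition used: TGI = concentration required for complete inhibition of growth.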

Columns and labels:
Assay in all cases: NCI tumour cell line growth inhibition, 384-well format
[1] = tested on: MCF7 breast
[2] = tested on: UO-31 renal
[3] = tested on: COLO 205 colon
[4] = tested on: EKVX NSCLC
[5] = tested on: RPMI-8226 leukemia
[6] = tested on: SF-295 CNS
[7] = tested on: SF-268 CNS
[8] = tested on: NCI-H322M lung
[9] = tested on: HOP-92 NSCLC
[10] = tested on: DU-145 prostate
[11] = tested on: LOX IMVI melanoma
[12] = tested on: MDA-MB-468 breast
[13] = tested on: HOP-62 NSCLC
[14] = tested on: OVCAR-5 ovarian
[15] = tested on: SNB-75 CNS
[16] = tested on: HCT-116 colon
[17] = tested on: NCI-H522 lung
[18] = tested on: KM12 colon
[19] = tested on: SK-MEL-5 melanoma
[20] = tested on: OVCAR-3 ovarian
[21] = tested on: NCI-H226 lung
[22] = tested on: RXF 393 renal
[23] = tested on: SN12C renal
[24] = tested on: SK-OV-3 ovarian
[25] = tested on: NCI-H460 NSCLC
[26] = tested on: HCT-15 colon
[27] = tested on: SF-539 CNS
[28] = tested on: 786-0 renal
[29] = tested on: CCRF-CEM leukemia
[30] = tested on: SR leukemia
[31] = tested on: HL-60(TB) leukemia
[32] = tested on: MALME-3M melanoma
[33] = tested on: NCI-H23 lung
[34] = tested on: OVCAR-4 ovarian
[35] = tested on: M14 melanoma
[36] = tested on: HS 578T breast
[37] = tested on: HCC-2998 colon
[38] = tested on: NCI/ADR-RES ovarian
[39] = tested on: A549 NSCLC
[40] = tested on: PC-3 prostate
[41] = tested on: HT29 colon
[42] = tested on: MOLT-4 leukemia
[43] = tested on: MDA-MB-231 breast
[44] = tested on: U251 glioblastoma
[45] = tested on: BT-549 breast
[46] = tested on: MDA-MB-435 melanoma
[47] = tested on: OVCAR-8 ovarian
[48] = tested on: TK-10 renal
[49] = tested on: SW-620 colon
[50] = tested on: T-47D breast
[51] = tested on: SNB-19 CNS
[52] = tested on: IGROV1 ovarian

Q: COc1ccc(-c2cc3c(C)nc(N)nc3n(C3CCC(OCCO)CC3)c2=O)cn1 (centres undefined) was tested. Which GI50 [1] did it give?
A: 20.7 nM

Q: And the TGI [1]?
A: 12700 nM

Q: What about the GI50 [2] of the same molecule?
A: 56.2 nM

Q: What about the TGI [2] of the same molecule?
A: 856 nM

Q: What about the GI50 [3] of the same molecule?
A: 126 nM

Q: And the TGI [3]?
A: 1350 nM

Q: And the GI50 [4]?
A: 62.3 nM

Q: What about the TGI [4] of the same molecule?
A: 447 nM

Q: What about the GI50 [5] of the same molecule?
A: 28.7 nM

Q: What about the TGI [5] of the same molecule?
A: 105 nM

Q: What about the GI50 [6] of the same molecule?
A: 45.5 nM

Q: And the TGI [6]?
A: 257 nM

Q: And the GI50 [7]?
A: 231 nM

Q: What about the TGI [7] of the same molecule?
A: 1730 nM

Q: What about the GI50 [8] of the same molecule?
A: 149 nM

Q: And the TGI [8]?
A: 13300 nM

Q: And the GI50 [9]?
A: 43.1 nM

Q: And the TGI [9]?
A: 302 nM

Q: What about the GI50 [10] of the same molecule?
A: 188 nM

Q: And the TGI [10]?
A: 23800 nM

Q: What about the GI50 [11] of the same molecule?
A: 222 nM

Q: And the TGI [11]?
A: 1150 nM

Q: What about the GI50 [12] of the same molecule?
A: 26.7 nM

Q: And the TGI [12]?
A: 146 nM

Q: What about the GI50 [13] of the same molecule?
A: 178 nM

Q: And the TGI [13]?
A: 1500 nM

Q: And the GI50 [14]?
A: 145 nM

Q: What about the TGI [14] of the same molecule?
A: 1750 nM

Q: What about the GI50 [15] of the same molecule?
A: 24 nM

Q: What about the TGI [15] of the same molecule?
A: 113 nM

Q: And the GI50 [16]?
A: 260 nM

Q: What about the TGI [16] of the same molecule?
A: 10500 nM

Q: What about the GI50 [17] of the same molecule?
A: 71.6 nM

Q: What about the TGI [17] of the same molecule?
A: 1200 nM

Q: What about the GI50 [18] of the same molecule?
A: 318 nM

Q: And the TGI [18]?
A: 33200 nM

Q: What about the GI50 [19] of the same molecule?
A: 88.2 nM

Q: What about the TGI [19] of the same molecule?
A: 261 nM

Q: And the GI50 [20]?
A: 53 nM

Q: And the TGI [20]?
A: 318 nM

Q: What about the GI50 [21] of the same molecule?
A: 191 nM

Q: What about the TGI [21] of the same molecule?
A: 960 nM

Q: What about the GI50 [22] of the same molecule?
A: 37 nM

Q: And the TGI [22]?
A: 199 nM

Q: What about the GI50 [23] of the same molecule?
A: 82.3 nM

Q: And the TGI [23]?
A: > 100000 nM

Q: And the GI50 [24]?
A: 80.5 nM

Q: And the TGI [24]?
A: 394 nM

Q: And the GI50 [25]?
A: 40.9 nM

Q: And the TGI [25]?
A: 11600 nM

Q: What about the GI50 [26] of the same molecule?
A: 89.8 nM

Q: What about the TGI [26] of the same molecule?
A: 12800 nM

Q: And the GI50 [27]?
A: 185 nM

Q: What about the TGI [27] of the same molecule?
A: 1270 nM

Q: And the GI50 [28]?
A: 268 nM

Q: And the TGI [28]?
A: 1530 nM

Q: And the GI50 [29]?
A: 59.7 nM

Q: What about the TGI [29] of the same molecule?
A: 1150 nM

Q: What about the GI50 [30] of the same molecule?
A: 106 nM

Q: What about the TGI [30] of the same molecule?
A: 304 nM

Q: What about the GI50 [31] of the same molecule?
A: 17.9 nM

Q: And the TGI [31]?
A: 191 nM

Q: And the GI50 [32]?
A: 24.7 nM

Q: And the TGI [32]?
A: 143 nM

Q: And the GI50 [33]?
A: 132 nM

Q: And the TGI [33]?
A: 5990 nM

Q: What about the GI50 [34] of the same molecule?
A: 90.2 nM

Q: What about the TGI [34] of the same molecule?
A: 854 nM

Q: And the GI50 [35]?
A: 97.8 nM

Q: What about the TGI [35] of the same molecule?
A: 4560 nM

Q: And the GI50 [36]?
A: 42.9 nM

Q: And the TGI [36]?
A: 235 nM

Q: What about the GI50 [37] of the same molecule?
A: 222 nM

Q: What about the TGI [37] of the same molecule?
A: 1670 nM

Q: And the GI50 [38]?
A: 241 nM

Q: What about the TGI [38] of the same molecule?
A: 2270 nM

Q: And the GI50 [39]?
A: 173 nM

Q: What about the TGI [39] of the same molecule?
A: 1100 nM

Q: What about the GI50 [40] of the same molecule?
A: 41.8 nM

Q: What about the TGI [40] of the same molecule?
A: 434 nM

Q: What about the GI50 [41] of the same molecule?
A: 228 nM

Q: What about the TGI [41] of the same molecule?
A: 5150 nM

Q: What about the GI50 [42] of the same molecule?
A: 31.8 nM

Q: And the TGI [42]?
A: 160 nM

Q: And the GI50 [43]?
A: 229 nM

Q: And the TGI [43]?
A: 2370 nM

Q: What about the GI50 [44] of the same molecule?
A: 490 nM

Q: What about the TGI [44] of the same molecule?
A: 1980 nM

Q: And the GI50 [45]?
A: 114 nM

Q: What about the TGI [45] of the same molecule?
A: 630 nM

Q: What about the GI50 [46] of the same molecule?
A: 220 nM

Q: What about the TGI [46] of the same molecule?
A: 1610 nM

Q: And the GI50 [47]?
A: 245 nM

Q: And the TGI [47]?
A: 6520 nM

Q: What about the GI50 [48] of the same molecule?
A: 65.8 nM

Q: What about the TGI [48] of the same molecule?
A: 408 nM

Q: And the GI50 [49]?
A: 315 nM

Q: And the TGI [49]?
A: > 100000 nM

Q: What about the GI50 [50] of the same molecule?
A: 19.9 nM

Q: And the TGI [50]?
A: 84.6 nM

Q: And the GI50 [51]?
A: 896 nM

Q: What about the TGI [51] of the same molecule?
A: 2260 nM

Q: And the GI50 [52]?
A: 24.1 nM

Q: What about the TGI [52] of the same molecule?
A: 80.3 nM
